Like-named read-outs stand apart in the source and are kept apart here.
Columns and labels:
GGTase I = biological target: T1, GGTase I (Homo sapiens, UniProt P53609); test: GGTase I activity assay: transfer of [3H]geranylgeranyl to recombinant H-Ras-CVLL, Daudi 60,000xg supernatant; format: biochemical
T1 construct: FTase and GGTase I activities from 60,000×g supernatants of human Burkitt lymphoma (Daudi) cells; endogenous in cells; host or cells: human Burkitt lymphoma (Daudi) cells, 60,000xg supernatant (partially purified)
Method: FTase and GGTase I activities from 60,000×g supernatants of human Burkitt lymphoma (Daudi) cells (ATCC, Rockville, Md., USA) were assayed as described previously for FTase (41). Briefly, 100 μg of the supernatant was incubated in 50 mM Tris, pH 7.5, 50 μM ZnCl2, 20 mM KCl and 1 mM dithiothreitol (DTT). The reaction was incubated at […] for 30 min with recombinant Ha-Ras-CVLS (11 μM) and [^3 H]FPP (625 nM; 16.3 Ci/mmol) for FTase, and recombinant Ha-Ras-CVLL (5 μM) and [^3 H]geranylgeranylpyrophosphate (525 nM; 19.0 Ci/mmol) for GGTase I. The peptidomimetics were mixed with FTase and GGTase before adding to the reaction mixture.
(§1) Human Burkitt lymphoma (Daudi) cells (ATCC, Rockville, Md.) were grown in suspension in RPMI 1640 medium containing 10% fetal bovine serum (FBS) and 1% Pen-Strep in a humidified 10% CO2 incubator at 37° C. The cells were harvested and sonicated in 50 mM Tris, pH 7.5, 1 mM EDTA, 1 mM EGTA, 25 μg/ml leupeptin, 1 mM phenylmethylsulfonyl fluoride. Homogenates were then spun at 12,000×g and the resulting supernatant further spun at 60,000×g. The supernatant was assayed for both FTase and GGTase I. Briefly, 100 μg of the supernatants was incubated in 50 mM Tris, pH 7.5, 50 μM ZnCl2, 20 mM KCl, 3 mM MgCl2 and 1 mM DTT. For FTase assays, the reaction was incubated at 37° C. for 30 minutes with recombinant H-Ras-CVLS (11 μM) and [^3 H] FPP (625 nM; 16.3 Ci/mmol). For GGTase assays, the reaction was also incubated for 30 minutes at 37° C. but with recombinant H-Ras-CVLL (5 μM) and [^3 H] GGPP (525 nM; 19.0 Ci/mmol). The reaction was stopped and passed through glass fiber filters to separate free and incorporated label. For inhibition studies, the peptidomimetics were premixed with FTase or GGTase I prior to adding the remainder of the reaction mixture. Recombinant H-Ras-CVLS was prepared as described previously (26) from bacteria (31). Recombinant H-Ras-CVLL was prepared from bacteria (32).
FTase and GGTase I activities from 60,000×g supernatants of human Burkitt lymphoma (Daudi) cells (ATCC, Rockville, Md.) were assayed exactly as described previously for FTase (41). Inhibition studies were performed by determining the ability of Ras CAAX peptidomimetics to inhibit the transfer of [^3 H]-farnesyl and [^3 H]-geranylgeranyl from [^3 H]FPP and [^3 H]GGPP to H-ras-CVLS and H-Ras-CVLL, respectively (41).

FTase [1] = biological target: T2, FTase (Homo sapiens, UniProt P49356); test: FTase activity assay: transfer of [3H]farnesyl from FPP to recombinant H-Ras-CVLS, Daudi 60,000xg supernatant; format: biochemical; conditions: for GG/F: ratio GGTase I IC50 / FTase IC50; for IC50: read-out: FTase IC50; for Selectivity: FTase over GGTase I
T2 construct: FTase and GGTase I activities from 60,000×g supernatants of human Burkitt lymphoma (Daudi) cells; endogenous in cells; host or cells: human Burkitt lymphoma (Daudi) cells, 60,000xg supernatant (partially purified)
Method: FTase and GGTase I activities from 60,000×g supernatants of human Burkitt lymphoma (Daudi) cells (ATCC, Rockville, Md., USA) were assayed as described previously for FTase (41). Briefly, 100 μg of the supernatant was incubated in 50 mM Tris, pH 7.5, 50 μM ZnCl2, 20 mM KCl and 1 mM dithiothreitol (DTT).
as §1, with “For FTase assays, the reaction was incubated at 37° C. for 30 minutes with recombinant H-Ras-CVLS (11 μM) and [^3 H]” left out, “Recombinant H-Ras-CVLS was prepared as described previously (26) from bacteria (31).” left out
FTase and GGTase I activities from 60,000×g supernatants of human Burkitt lymphoma (Daudi) cells (ATCC, Rockville, Md.) were assayed exactly as described previously for FTase (41).

Ras processing = Ras processing assay in EJ3 / Ras transformed 3T3 cells (FIG. 16A); format: cell-based
Method: EJ3 cells were treated with peptidomimetics or vehicle for 20-24 h. Cells were lysed in lysis buffer (10 mM Na2 HPO4, pH 7.25, 150 mM NaCl, 0.1% sodium dodecyl sulfate, 1% Triton X-100, 12 mM sodium deoxycholate, 1 mM NaF, 0.2% NaN3, 2 mM PMSF, 25 μg/ml leupeptin) and the lysates were cleared by spinning at 13,000 rpm for 15 minutes. Ras protein was immunoprecipitated overnight at 4° C. with 50 μg of anti-Ras antibody (Y13-259; hybridoma from ATCC, Rockville, Md.) along with 30 μl Protein A-agarose goat anti-rat IgG complex (oncogene Science, Uniondale, N.Y.). Immunoprecipitates were washed 4 times with lysis buffer and the bound proteins were released by heating for 5 minutes in 40 μl SDS-PAGE sample buffer and subsequently electrophoresed on a 12.5% SDS-PAGE.

Rap1A processing = Rap1A processing assay in EJ3 / Ras transformed 3T3 cells (FIG. 16B); format: cell-based
Method: For Rap1A processing assays, 50 μg of cell lysates were electrophoresed as described above for Ras processing and transferred to nitrocellulose. These membranes were then blocked with 5% milk in Tris-buffered saline, pH 8.0, containing 0.5% Tween-20 and probed with anti-Rap1A (1 μg/ml in 5% milk/TBS-T; Santa Cruz Biotechnology, Santa Cruz, Calif.). Antibody reactions were visualized using peroxidase-conjugated goat anti-rabbit IgG (Oncogene) and ECL chemiluminescence as described above.

FTase [2] = biological target: T2, FTase; test: Peptidomimetics farnesylation assay (silica gel TLC); format: biochemical; conditions: Table 4; substrate for farnesylation, TLC
Method: The ability of human Burkitt lymphoma (Daudi) FTase to farnesylate peptides and peptidomimetics was determined as described previously (34, 35). Briefly, 25 μl of reaction mixture containing 50 μg of 60,000×g supernatants and 20 μM peptidomimetic in 50 mM Tris, pH 7.5, 50 μM ZnCl2, 20 mM KCl, 3 mM MgCl2, 1 mM DTT and 0.2% octylβ-D-glucoside was incubated for 30 minutes at 37° C., then spotted onto silica gel G TLC sheets (20×20 cm, Brinkmann Instruments), and developed with n-propanol/5 N ammonium hydroxide/water (6:1:1). The dried sheets were sprayed with En^3 Hance (DuPont NEN) and exposed to x-ray film for detection of [^3 H] farnesylated products.

H-Ras processing = test: Ras processing assay in H-RasF cells (NIH 3T3 transformed with oncogenic H-Ras-CVLS), immunoblot; format: cell-based; conditions: whole cells; read-out: H-Ras processing IC50
Method: H-RasF cells (45) were seeded on day 0 in 100 mm Dishes (costar) in Dulbecco's modified Eagles medium (GIBCO) and allowed to grow to 40-60% confluency. […] On day 3, cells were washed one time with ice cold PBS and were collected and lysed by incubation for 30-60 min on ice in lysis buffer (41). Lysates were cleared (14,000 rpm, 4° C., 15 min) and supernatants collected. Equal amounts of lysate were separated on a 12.5% SDS-PAGE, transfered to nitrocellulose, and a western blot performed using a anti-Ras antibody (Y13-238, ATCC) or anti-Rap1A antibody (Santa Cruz Biotechnology, Santa Cruz, Calif.). Antibody reactions were visualized using peroxidase-conjugated goat anti-rat IgG for Y13-238 and peroxidase-conjugated goat anti-rabbit IgG for Rap1A and an enhanced chemiluminescence detection system (ECL; Amersham Corp.)
H-Ras cells (45) and K-Ras4B Cells (32) were kind gifts from Dr. Channing Der and Dr. Adrienne Cox (University of North Carolina, Chapel Hill). Means of obtaining these cell lines will be easily recognized by the skilled practitioner. Cells were seeded on day 0 in 100 mm dishes in Dulbecco's modified Eagles medium supplemented with 10% calf serum and 1% penicillin-streptomycin. […] On day 3, cells were washed and lysed in lysis buffer containing 50 mM HEPES, pH 7.5, 10 mM NaCl, 1% TX-100, 10% glycerol, 5 mM MgCl2, 1 mM EGTA, 25 μg/ml leupeptin, 2 mM PMSF, 2 mM Na3 VO4, 1 mg/ml soybean trypsin inhibitor, 10 μg/ml aprotinin, 6.4 mg/ml Sigma-104® phosphatase substrate. Lysates were cleared (14,000 rpm, 4° C., 15 min) and equal amounts of protein were separated on a 12.5% SDS-PAGE, transferred to nitrocellulose, and immunoblotted using an anti-Ras antibody (Y13-259, ATCC) or an anti-RapIA antibody (SC-65, Santa Cruz Biotechnology, Santa Cruz, Calif.). Antibody reactions were visualized using either peroxidase-conjugated goat anti-rat 1 gG (for Y13-259), or peroxidase-conjugated goat anti-rabbit 1 gG (for Rap1A) and an enhanced chemiluminescence detection (ECL, Amersham Corp.), as described previously (41).

[3] = Table 1, read-out: GGTase I IC50
[4] = Table 4, read-out: GGTase-I IC50

T2 sequence (P49356 whole entry): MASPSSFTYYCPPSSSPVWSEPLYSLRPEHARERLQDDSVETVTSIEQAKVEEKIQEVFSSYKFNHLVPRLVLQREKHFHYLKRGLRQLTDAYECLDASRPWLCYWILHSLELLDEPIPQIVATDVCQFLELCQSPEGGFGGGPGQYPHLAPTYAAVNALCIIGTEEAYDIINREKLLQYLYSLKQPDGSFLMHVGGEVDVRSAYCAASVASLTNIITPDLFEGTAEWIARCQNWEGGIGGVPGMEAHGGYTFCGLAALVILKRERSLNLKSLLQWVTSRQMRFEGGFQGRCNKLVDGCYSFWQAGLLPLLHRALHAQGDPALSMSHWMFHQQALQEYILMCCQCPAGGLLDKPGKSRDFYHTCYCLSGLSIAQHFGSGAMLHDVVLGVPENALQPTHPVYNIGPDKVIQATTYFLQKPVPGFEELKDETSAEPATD
T1 sequence (P53609 whole entry): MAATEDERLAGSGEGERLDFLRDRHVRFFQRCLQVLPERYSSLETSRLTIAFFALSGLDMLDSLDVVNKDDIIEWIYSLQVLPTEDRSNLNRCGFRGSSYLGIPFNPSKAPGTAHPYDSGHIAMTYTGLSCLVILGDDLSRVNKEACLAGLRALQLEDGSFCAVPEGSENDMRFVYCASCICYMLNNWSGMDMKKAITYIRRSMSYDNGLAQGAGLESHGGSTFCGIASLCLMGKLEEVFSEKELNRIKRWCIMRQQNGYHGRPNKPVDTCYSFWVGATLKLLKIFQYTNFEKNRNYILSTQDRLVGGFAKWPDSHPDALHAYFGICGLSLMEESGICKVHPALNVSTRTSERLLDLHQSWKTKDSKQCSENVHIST

| SMILES | IC50 (GGTase I; [3]) | GG/F (FTase [1]; Table 1) | IC50 (FTase [1]; Table 1) | inhibition of Ras processing (Ras processing; 200 μM) | IC50 (GGTase I; [4]) | inhibition of Rap1A processing (Rap1A processing) | Substrate (FTase [2]) | inhibition of Ras processing (Ras processing; FIG. 16A) | Selectivity (FTase [1]; Table 4) | IC50 (FTase [1]; Table 4) | IC50 (H-Ras processing) | selectivity for FTase over GGTase I (FTase [1]) | IC50 (FTase [1]) |
| --- | --- | --- | --- | --- | --- | --- | --- | --- | --- | --- | --- | --- | --- |
| COC(=O)[C@H](CCSC)NC(=O)c1ccc(NC[C@@H](N)CS)cc1 [FTI-254, 4-N-[2(R)-Amino-3-mercaptopropyl]aminobenzoyl methionine methyl ester] | 19000 nM | 19 | 1000 nM | inhibited FTase | – | – | – | – | – | – | – | – | – |
| N[C@@H](CS)CNc1ccc(-c2ccc(C(=O)O)cc2)cc1 [FTI-271, 4-N-[2(R)-Amino-3-mercaptopropyl]amino-4'-carboxybiphenyl] | – | – | – | – | > 100000 nM | did not inhibit Rap1A processing | no | – | – | – | – | – | – |
| CC[C@H](C)C(=O)O[C@H]1C[C@@H](C)C=C2C=C[C@H](C)[C@H](CC[C@@H]3C[C@@H](O)CC(=O)O3)[C@H]21 [lovastatin, reference compound] | – | – | – | – | – | inhibited the processing of Rap1A | – | inhibited Ras processing | – | – | – | – | – |
| Cc1cccc(-c2ccc(NC[C@@H](N)CS)cc2)c1 [FTI-263, 4-N-[2(R)-Amino-3-mercaptopropyl]amino-3'-methylbiphenyl] | – | – | – | – | > 100000 nM | did not inhibit Rap1A processing | no | – | 141 | 710 nM | – | – | – |
| CSCC[C@H](NC(=O)c1ccc(NC[C@@H](N)CS)cc1)C(=O)O [FTI-249, 4-N-[2(R)-Amino-3-mercaptopropyl]aminobenzoyl methionine] | 3970 nM | 15 | 272 nM | did not inhibit Ras processing | 4400 nM | – | – | did not inhibit Ras processing | 15 | 300 nM | 100000 nM | 15 fold | 300 nM |
